In US20200331904A1, “3-AMINO-[1,2,4]-TRIAZOLE DERIVATIVES AND THEIR USE FOR CONTROLLING UNDESIRED PLANT GROWTH” (Bayer CropScience Aktiengesellschaft, priority 2017, published 2020):

Tests used:
Assay type in all cases: in vivo
Amaranthus retroflexus = test: Pre-emergence herbicidal efficacy, AMARE; conditions: scored visually after about 3 weeks vs untreated controls
From the text: (§1) C.1 Pre-Emergence Herbicidal Action and Crop Plant Compatibility
(§2) Seeds of monocotyledonous and dicotyledonous weed plants and crop plants are placed in plastic or organic planting pots and covered with soil. The compounds of the invention, formulated in the form of wettable powders (WP) or as emulsion concentrates (EC), are then applied onto the surface of the covering soil as aqueous suspension or emulsion with addition of 0.5% additive at a water application rate of […] (converted). After the treatment, the pots are placed in a greenhouse and kept under good growth conditions for the trial plants. After about 3 weeks, the effect of the preparations is scored visually in comparison with untreated controls as percentages. For example, 100% activity=the plants have died, 0% activity=like control plants.
(§3) ABUTH: Abutilon theophrasti ALOMY: Alopecurus myosuroides AMARE: Amaranthus retroflexus AVEFA: Avena fatua CYPES: Cyperus esculentus ECHCG: Echinochloa crus-galli LOLMU: Lolium multiflorum MATIN: Matricaria inodora PHBPU: Ipomoea purpurea POLCO: Polygonum convolvulus SETVI: Setaria viridis STEME: Stellaria media VERPE: Veronica persica VTOTR: Viola tricolor

Polygonum convolvulus = test: Pre-emergence herbicidal efficacy, POLCO; conditions: scored visually after about 3 weeks vs untreated controls
From the text: as §1, §2, §3

Stellaria media = test: Pre-emergence herbicidal efficacy, STEME; conditions: scored visually after about 3 weeks vs untreated controls
From the text: as §1, §2, §3

Matricaria inodora = test: Pre-emergence herbicidal efficacy, MATIN; conditions: scored visually after about 3 weeks vs untreated controls
From the text: as §1, §2, §3

Veronica persica = test: Pre-emergence herbicidal efficacy, VERPE; conditions: scored visually after about 3 weeks vs untreated controls
From the text: as §1, §2, §3

Viola tricolor = test: Pre-emergence herbicidal efficacy, VIOTR; conditions: scored visually after about 3 weeks vs untreated controls
From the text: as §1, §2, §3

Setaria viridis = test: Pre-emergence herbicidal efficacy, SETVI; conditions: Table B1, application rate 320 g/ha, scored visually after about 3 weeks vs untreated controls
From the text: as §1, §2, §3

Echinochloa crus-galli = test: Pre-emergence herbicidal efficacy, ECHCG; conditions: Table B1, application rate 320 g/ha, scored visually after about 3 weeks vs untreated controls
From the text: as §1, §2, §3

Abutilon theophrasti = test: Pre-emergence herbicidal efficacy, ABUTH; conditions: Table B1, application rate 320 g/ha, scored visually after about 3 weeks vs untreated controls
From the text: as §1, §2, §3

[1] = Table B2, application rate 320 g/ha
[2] = Table B1, application rate 320 g/ha

| SMILES | Herbicidal efficacy against AMARE (Amaranthus retroflexus; [1]) [%] | Herbicidal efficacy against POLCO (Polygonum convolvulus; [1]) [%] | Herbicidal efficacy against STEME (Stellaria media; [1]) [%] | Herbicidal efficacy against MATIN (Matricaria inodora; [1]) [%] | Herbicidal efficacy against VERPE (Veronica persica; [1]) [%] | Herbicidal efficacy against VIOTR (Viola tricolor; [1]) [%] | Herbicidal efficacy against AMARE (Amaranthus retroflexus; [2]) [%] | Herbicidal efficacy against SETVI (Setaria viridis) [%] | Herbicidal efficacy against POLCO (Polygonum convolvulus; [2]) [%] | Herbicidal efficacy against ECHCG (Echinochloa crus-galli) [%] | Herbicidal efficacy against STEME (Stellaria media; [2]) [%] | Herbicidal efficacy against MATIN (Matricaria inodora; [2]) [%] | Herbicidal efficacy against VERPE (Veronica persica; [2]) [%] | Herbicidal efficacy against VIOTR (Viola tricolor; [2]) [%] | Herbicidal efficacy against ABUTH (Abutilon theophrasti) [%] |
| --- | --- | --- | --- | --- | --- | --- | --- | --- | --- | --- | --- | --- | --- | --- | --- |
| Cc1ccc2c(c1)C(Nc1nc3n(n1)CCCN3S(C)(=O)=O)CCC2 (stereo not shown) [Example I-329] | 100 | 100 | 100 | 100 | 100 | 100 |  |  |  |  |  |  |  |  |  |
| O=S(=O)(C1CC1)N1CCCn2nc(NC3CCCc4ccccc43)nc21 (stereo not shown) [Example I-333] | 100 | 100 | 100 |  | 100 | 100 |  |  |  |  |  |  |  |  |  |
| Cc1ccc2c(c1)[C@H](Nc1nc3n(n1)CCCS3)CC2 [Example I-347] |  |  |  |  |  |  | 100 | 100 | 100 | 100 | 100 | 100 | 100 | 100 | 100 |
| c1ccc2c(c1)CCC[C@H]2Nc1nc2n(n1)CCCS2 [Example I-349] | 100 | 100 | 100 | 100 | 100 | 100 |  |  |  |  |  |  |  |  |  |
| Cc1ccc2c(c1)C(Nc1nc3n(n1)CCC[S+]3[O-])C(C)C2 (stereo not shown) [Example I-360] |  |  |  |  |  |  | 100 | 100 | 100 | 90 | 100 | 100 | 100 | 100 | 100 |
| [O-][S+]1CCCn2nc(N[C@@H]3CCCc4ccccc43)nc21 (stereo partly shown) [Example I-361] | 100 | 100 | 100 | 100 | 100 | 100 |  |  |  |  |  |  |  |  |  |
| CC1CCc2ccccc2C1Nc1nc2n(n1)CCC[S+]2[O-] (stereo not shown) [Example I-362] | 100 | 100 | 100 | 100 | 100 | 100 |  |  |  |  |  |  |  |  |  |
| O=S1(=O)CCCCn2nc(N[C@@H]3CCc4ccccc43)nc21 [Example I-364, N-[(1R)-indan-1-yl]-4,4-dioxo-5,6,7,8-tetrahydro-[1,2,4]triazolo[5,1-b][1,3]thiazepin-2-amine] | 100 | 100 | 100 | 100 | 100 | 100 |  |  |  |  |  |  |  |  |  |
| CC1CCc2ccccc2C1Nc1nc2n(n1)CCCCS2(=O)=O (stereo not shown) [Example I-368] | 100 |  | 100 | 100 | 100 | 100 |  |  |  |  |  |  |  |  |  |
| CC1CCc2ccccc2C1Nc1nc2n(n1)CCCC[S+]2[O-] (stereo not shown) [Example I-373] | 100 | 100 | 100 | 100 | 100 | 100 |  |  |  |  |  |  |  |  |  |
| Cc1ccc2c(c1)[C@H](Nc1nc3n(n1)CCCS3(=O)=O)CCO2 [Example I-378] | 100 | 100 | 100 | 100 | 100 | 100 |  |  |  |  |  |  |  |  |  |
